Results taken from US5110800A, “Derivatives of erythromycylamine” (Eli Lilly and Company, priority 1989, dated 1992).
Converted amounts (≈) assume the structure as drawn. Like-named read-outs stand apart in the source and are kept apart here.

Key:
Assay in all cases: MIC, standard agar-dilution assay
Format in all cases: cell-based
[1] = tested on: Staphylococcus aureus V41; details: Staphylococcus aureus
Text: (§1) In addition to excellent in vitro activity against erythromycin-sensitive bacteria, several members of this new series have shown in vitro activity against erythromycin-resistant strains. These include strains which are inducibly-resistant to erythromycin (S. aureus V41 and X400 and S. epidermidis EPI1) and even strains which are constitutively-resistant (S. epidermidis 270).

[2] = tested on: Staphylococcus epidermidis 270; details: Staphylococcus epidermidis, 270; Table IV; constitutively erythromycin-resistant; read-out: minimal inhibitory concentration (MIC)
Text: as §1

[3] = tested on: Staphylococcus aureus X400; details: Staphylococcus aureus
Text: as §1

[4] = tested on: Klebsiella pneumoniae X68; details: Klebsiella pneumoniae, X68, agar dilution, read-out: minimal inhibitory concentration (MIC)
Escherichia coli EC14 = details: Escherichia coli
[5] = tested on: Streptococcus sp. group D X66; details: Streptococcus, read-out: minimal inhibitory concentration (MIC)
[6] = tested on: Streptococcus sp. group D 2041; details: Streptococcus, read-out: minimal inhibitory concentration (MIC)
[7] = tested on: Staphylococcus aureus X1.1; details: Staphylococcus aureus, X1.1, read-out: minimal inhibitory concentration (MIC)
[8] = tested on: Staphylococcus epidermidis 222; details: Staphylococcus epidermidis, 222, read-out: minimal inhibitory concentration (MIC)
[9] = tested on: Streptococcus pyogenes C203; details: Streptococcus pyogenes, C203, read-out: minimal inhibitory concentration (MIC)
[10] = V41, Table IV, penicillin-resistant strain, inducibly erythromycin-resistant, read-out: minimal inhibitory concentration (MIC)
[11] = X400, Table IV, methicillin-resistant strain, inducibly erythromycin-resistant, read-out: minimal inhibitory concentration (MIC)
[12] = EC14, Table IV, agar dilution, read-out: minimal inhibitory concentration (MIC)

SMILES | MIC [1, 10] | MIC [2] | MIC [3, 11] | further results
CCCCCCCN[C@@H]1[C@H](C)[C@@H](O)[C@](C)(O)[C@@H](CC)OC(=O)[C@H](C)[C@@H](O[C@H]2C[C@@](C)(OC)[C@@H](O)[C@H](C)O2)[C@H](C)[C@@H](O[C@@H]2O[C@H](C)C[C@H](N(C)C)[C@H]2O)[C@](C)(O)C[C@H]1C [Compound 7, 9-Deoxo-9-(n-heptylamino)erythromycin] | > 128 µg/mL | > 128 µg/mL | > 128 µg/mL | MIC ([4]; Table IV): > 128 µg/mL
CCCCCCCCN[C@@H]1[C@H](C)[C@@H](O)[C@](C)(O)[C@@H](CC)OC(=O)[C@H](C)[C@@H](O[C@H]2C[C@@](C)(OC)[C@@H](O)[C@H](C)O2)[C@H](C)[C@@H](O[C@@H]2O[C@H](C)C[C@H](N(C)C)[C@H]2O)[C@](C)(O)C[C@H]1C [Compound 8, 9-Deoxo-9-(n-octylamino)erythromycin] |  |  |  | MIC (Escherichia coli EC14; [12]): > 128 µg/mL; MIC ([4]; Table IV): > 128 µg/mL
CC[C@H]1OC(=O)[C@H](C)[C@@H](O[C@H]2C[C@@](C)(OC)[C@@H](O)[C@H](C)O2)[C@H](C)[C@@H](O[C@@H]2O[C@H](C)C[C@H](N(C)C)[C@H]2O)[C@](C)(O)C[C@@H](C)[C@H](NCC2CC=CCC2)[C@H](C)[C@@H](O)[C@]1(C)O (some centres unmarked) [Compound 15, 9-Deoxo-9-[(1-cyclohex-4-enylmethyl)amino]erythromycin] | > 128 µg/mL | > 128 µg/mL | > 128 µg/mL | 
CC[C@H]1OC(=O)[C@H](C)[C@@H](O[C@H]2C[C@@](C)(OC)[C@@H](O)[C@H](C)O2)[C@H](C)[C@@H](O[C@@H]2O[C@H](C)C[C@H](N(C)C)[C@H]2O)[C@](C)(O)C[C@@H](C)[C@H](NCC#Cc2ccccc2)[C@H](C)[C@@H](O)[C@]1(C)O [Compound 18, 9-Deoxo-9-[(3-phenyl-2-propynyl)amino]erythromycin] |  |  |  | MIC (Escherichia coli EC14; [12]): > 128 µg/mL; MIC [5]: 0.25 µg/mL (≈ 0.294 µM); MIC [6]: 1 µg/mL (≈ 1.18 µM); MIC [7]: 1 µg/mL (≈ 1.18 µM); MIC ([4]; Table IV): > 128 µg/mL; MIC [8]: 0.5 µg/mL (≈ 0.589 µM)
CC[C@H]1OC(=O)[C@H](C)[C@@H](O[C@H]2C[C@@](C)(OC)[C@@H](O)[C@H](C)O2)[C@H](C)[C@@H](O[C@@H]2O[C@H](C)C[C@H](N(C)C)[C@H]2O)[C@](C)(O)C[C@@H](C)[C@H](NCCCOC)[C@H](C)[C@@H](O)[C@]1(C)O [Compound 23, (9S)-9-Deoxo-9-[(3-methoxypropyl)amino]erythromycin] | > 128 µg/mL | > 128 µg/mL | > 128 µg/mL | MIC [5]: 0.25 µg/mL (≈ 0.31 µM); MIC [6]: 8 µg/mL (≈ 9.91 µM); MIC [7]: 2 µg/mL (≈ 2.48 µM); MIC [9]: 0.125 µg/mL (≈ 0.155 µM); MIC [8]: 0.5 µg/mL (≈ 0.62 µM)
CC[C@H]1OC(=O)[C@H](C)[C@@H](O[C@H]2C[C@@](C)(OC)[C@@H](O)[C@H](C)O2)[C@H](C)[C@@H](O[C@@H]2O[C@H](C)C[C@H](N(C)C)[C@H]2O)[C@](C)(O)C[C@@H](C)[C@H](NCCC(C)CCCC(C)(C)OC)[C@H](C)[C@@H](O)[C@]1(C)O (some centres unmarked) [Compound 24, 9-Deoxo-9-[(7-methoxy-3,7-dimethyloctyl)amino]erythromycin] |  | > 128 µg/mL |  | MIC (Escherichia coli EC14; EC14, read-out: minimal inhibitory concentration (MIC)): 128 µg/mL (≈ 141 µM); MIC [6]: 2 µg/mL (≈ 2.21 µM); MIC [7]: 0.5 µg/mL (≈ 0.552 µM); MIC [9]: 0.015 µg/mL (≈ 0.0166 µM); MIC ([4]; Table IV): > 128 µg/mL; MIC [8]: 0.25 µg/mL (≈ 0.276 µM)
CC[C@H]1OC(=O)[C@H](C)[C@@H](O[C@H]2C[C@@](C)(OC)[C@@H](O)[C@H](C)O2)[C@H](C)[C@@H](O[C@@H]2O[C@H](C)C[C@H](N(C)C)[C@H]2O)[C@](C)(O)C[C@@H](C)[C@H]2[C@H](C)[C@@H](OCN2C(C)C)[C@]1(C)O [Compound 58, 9-Deoxo-9-[isopropylamino]-9,11-(N,O)-cyclic Methylene Adduct of Erythromycin] |  |  |  | MIC ([1]; V41, read-out: minimal inhibitory concentration (MIC)): > 128 µg/mL; MIC ([3]; X400, read-out: minimal inhibitory concentration (MIC)): > 128 µg/mL
CC[C@H]1OC(=O)[C@H](C)[C@@H](O[C@H]2C[C@@](C)(OC)[C@@H](O)[C@H](C)O2)[C@H](C)[C@@H](O[C@@H]2O[C@H](C)C[C@H](N(C)C)[C@H]2O)[C@](C)(O)C[C@@H](C)[C@H]2[C@H](C)[C@@H](OCN2Cc2ccccc2)[C@]1(C)O [Compound 62, 9-Deoxo-9-[(benzyl)amino]-9,11-(N,O)-cyclic Methylene Adduct of Erythromycin] |  |  |  | MIC (Escherichia coli EC14; EC14, Table V, agar dilution, read-out: minimal inhibitory concentration (MIC)): > 128 µg/mL; MIC ([4]; Table V): > 128 µg/mL

Now from value to compound, other results behind:

MIC [1, 10] | MIC [2] | MIC [3, 11] | SMILES | further results
> 128 µg/mL | > 128 µg/mL | > 128 µg/mL | CCN[C@@H]1[C@H](C)[C@@H](O)[C@](C)(O)[C@@H](CC)OC(=O)[C@H](C)[C@@H](O[C@H]2C[C@@](C)(OC)[C@@H](O)[C@H](C)O2)[C@H](C)[C@@H](O[C@@H]2O[C@H](C)C[C@H](N(C)C)[C@H]2O)[C@](C)(O)C[C@H]1C [Compound 2, (9S)-9-Deoxo-9-(ethylamino)erythromycin] | 
> 128 µg/mL | > 128 µg/mL | > 128 µg/mL | CCCN[C@@H]1[C@H](C)[C@@H](O)[C@](C)(O)[C@@H](CC)OC(=O)[C@H](C)[C@@H](O[C@H]2C[C@@](C)(OC)[C@@H](O)[C@H](C)O2)[C@H](C)[C@@H](O[C@@H]2O[C@H](C)C[C@H](N(C)C)[C@H]2O)[C@](C)(O)C[C@H]1C [Compound 3, 9-Deoxo-9-(n-propylamino)erythromycin] | 
> 128 µg/mL | > 128 µg/mL | > 128 µg/mL | CCCCCCN[C@@H]1[C@H](C)[C@@H](O)[C@](C)(O)[C@@H](CC)OC(=O)[C@H](C)[C@@H](O[C@H]2C[C@@](C)(OC)[C@@H](O)[C@H](C)O2)[C@H](C)[C@@H](O[C@@H]2O[C@H](C)C[C@H](N(C)C)[C@H]2O)[C@](C)(O)C[C@H]1C [Compound 6, 9-Deoxo-9-(n-hexylamino)erythromycin] | 
> 128 µg/mL | > 128 µg/mL | > 128 µg/mL | CC[C@H]1OC(=O)[C@H](C)[C@@H](O[C@H]2C[C@@](C)(OC)[C@@H](O)[C@H](C)O2)[C@H](C)[C@@H](O[C@@H]2O[C@H](C)C[C@H](N(C)C)[C@H]2O)[C@](C)(O)C[C@@H](C)[C@H](NCCC(C)C)[C@H](C)[C@@H](O)[C@]1(C)O [Compound 11, 9-Deoxo-9-[(3-methylbutyl)amino]erythromycin] | 
 | > 128 µg/mL |  | CCC(CC)CN[C@@H]1[C@H](C)[C@@H](O)[C@](C)(O)[C@@H](CC)OC(=O)[C@H](C)[C@@H](O[C@H]2C[C@@](C)(OC)[C@@H](O)[C@H](C)O2)[C@H](C)[C@@H](O[C@@H]2O[C@H](C)C[C@H](N(C)C)[C@H]2O)[C@](C)(O)C[C@H]1C [Compound 12, 9-Deoxo-9-[(2-ethylbutyl)amino]erythromycin] | 
> 128 µg/mL | > 128 µg/mL | > 128 µg/mL | CC[C@H]1OC(=O)[C@H](C)[C@@H](O[C@H]2C[C@@](C)(OC)[C@@H](O)[C@H](C)O2)[C@H](C)[C@@H](O[C@@H]2O[C@H](C)C[C@H](N(C)C)[C@H]2O)[C@](C)(O)C[C@@H](C)[C@H](NCCCCCO)[C@H](C)[C@@H](O)[C@]1(C)O [Compound 21, 9-Deoxo-9-[(5-hydroxypentyl)amino]erythromycin] | 
> 128 µg/mL | > 128 µg/mL | > 128 µg/mL | CC[C@H]1OC(=O)[C@H](C)[C@@H](O[C@H]2C[C@@](C)(OC)[C@@H](O)[C@H](C)O2)[C@H](C)[C@@H](O[C@@H]2O[C@H](C)C[C@H](N(C)C)[C@H]2O)[C@](C)(O)C[C@@H](C)[C@H](NCC(C)(C)CO)[C@H](C)[C@@H](O)[C@]1(C)O [Compound 22, 9-Deoxo-9-[(3-hydroxy-2,2-dimethylpropyl)amino]erythromycin] | 
> 128 µg/mL | > 128 µg/mL | > 128 µg/mL | CC[C@H]1OC(=O)[C@H](C)[C@@H](O[C@H]2C[C@@](C)(OC)[C@@H](O)[C@H](C)O2)[C@H](C)[C@@H](O[C@@H]2O[C@H](C)C[C@H](N(C)C)[C@H]2O)[C@](C)(O)C[C@@H](C)[C@H](NCCOCCOC)[C@H](C)[C@@H](O)[C@]1(C)O [Compound 25, 9-Deoxo-9-[[2-(2-methoxyethoxy)ethyl]amino]erythromycin] | 
